Results: the NIST ThermoML archive (doi:10.1016/j.tca.2009.03.005)

Experiments:
[1] = DTA
[2] = Molar enthalpy of transition or fusion; details: Crystal 2; DSC
[3] = molar heat capacity at constant pressure; details: 101.33 kPa

O=N[O-].[Na+] [sodium nitrite]
[1]
Details | Normal melting temperature [°C] | Triple point temperature [K]
Crystal 1 | 280.1 | –
Crystal 2 | – | 438.7
Crystal 3 | – | 437.2

Details | Molar enthalpy of transition or fusion [kcal/mol]
[2] | 3.32

[3]
Details | molar heat capacity at constant pressure [J/K/mol]
273.15 K, Crystal 3, Small sample (50 mg) DSC | 85.2
278.15 K, Crystal 3, Small sample (50 mg) DSC | 85.3
283.15 K, Crystal 3, Small sample (50 mg) DSC | 86
288.15 K, Crystal 3, Small sample (50 mg) DSC | 86.6
293.15 K, Crystal 3, Small sample (50 mg) DSC | 87.3
298.15 K, Crystal 3, Small sample (50 mg) DSC | 88.1
303.15 K, Crystal 3, Large sample (1 g) DSC | 85.3
303.15 K, Crystal 3, Small sample (50 mg) DSC | 88.8
308.15 K, Crystal 3, Small sample (50 mg) DSC | 90.1
313.15 K, Crystal 3, Small sample (50 mg) DSC | 90.8
318.15 K, Crystal 3, Small sample (50 mg) DSC | 91.8
323.15 K, Crystal 3, Large sample (1 g) DSC | 89.3
323.15 K, Crystal 3, Small sample (50 mg) DSC | 92.8
328.15 K, Crystal 3, Small sample (50 mg) DSC | 94
333.15 K, Crystal 3, Small sample (50 mg) DSC | 95.3
338.15 K, Crystal 3, Small sample (50 mg) DSC | 96.7
343.15 K, Crystal 3, Large sample (1 g) DSC | 94.1
343.15 K, Crystal 3, Small sample (50 mg) DSC | 98
348.15 K, Crystal 3, Small sample (50 mg) DSC | 99.8
353.15 K, Crystal 3, Small sample (50 mg) DSC | 101.3
358.15 K, Crystal 3, Small sample (50 mg) DSC | 102.5
363.15 K, Crystal 3, Large sample (1 g) DSC | 99.9
363.15 K, Crystal 3, Small sample (50 mg) DSC | 103.5
368.15 K, Crystal 3, Small sample (50 mg) DSC | 106.2
373.15 K, Crystal 3, Small sample (50 mg) DSC | 108.2
378.15 K, Crystal 3, Small sample (50 mg) DSC | 109.9
383.15 K, Crystal 3, Large sample (1 g) DSC | 107.8
383.15 K, Crystal 3, Small sample (50 mg) DSC | 111.6
388.15 K, Crystal 3, Small sample (50 mg) DSC | 115.3
393.15 K, Crystal 3, Small sample (50 mg) DSC | 118.2
398.15 K, Crystal 3, Small sample (50 mg) DSC | 121.5
403.15 K, Crystal 3, Large sample (1 g) DSC | 119.3
403.15 K, Crystal 3, Small sample (50 mg) DSC | 124.4
408.15 K, Crystal 3, Small sample (50 mg) DSC | 130
413.15 K, Crystal 3, Small sample (50 mg) DSC | 135.6
418.15 K, Crystal 3, Small sample (50 mg) DSC | 142.7
419.15 K, Crystal 3, Small sample (50 mg) DSC | 144.39
420.15 K, Crystal 3, Small sample (50 mg) DSC | 146.16
421.15 K, Crystal 3, Small sample (50 mg) DSC | 148.05
422.15 K, Crystal 3, Small sample (50 mg) DSC | 150.11
423.15 K, Crystal 3, Small sample (50 mg) DSC | 152.4
424.15 K, Crystal 3, Small sample (50 mg) DSC | 154.72
425.15 K, Crystal 3, Small sample (50 mg) DSC | 157.33
426.15 K, Crystal 3, Small sample (50 mg) DSC | 160.25
427.15 K, Crystal 3, Small sample (50 mg) DSC | 163.31
428.15 K, Crystal 3, Small sample (50 mg) DSC | 166.7
429.15 K, Crystal 3, Small sample (50 mg) DSC | 170.6
430.15 K, Crystal 3, Small sample (50 mg) DSC | 175.1
431.15 K, Crystal 3, Small sample (50 mg) DSC | 180.4
437.25 K, Crystal 2, Small sample (50 mg) DSC | 215.4
437.35 K, Crystal 2, Small sample (50 mg) DSC | 213.7
437.45 K, Crystal 2, Small sample (50 mg) DSC | 213.5
437.55 K, Crystal 2, Small sample (50 mg) DSC | 213.7
437.75 K, Crystal 2, Small sample (50 mg) DSC | 215.5
437.85 K, Crystal 2, Small sample (50 mg) DSC | 217.1
437.95 K, Crystal 2, Small sample (50 mg) DSC | 220.4
438.05 K, Crystal 2, Small sample (50 mg) DSC | 223.4
438.15 K, Crystal 2, Small sample (50 mg) DSC | 223.6
468.15 K, Crystal 1, Small sample (50 mg) DSC | 129
473.15 K, Crystal 1, Small sample (50 mg) DSC | 129.8
478.15 K, Crystal 1, Small sample (50 mg) DSC | 130.8
483.15 K, Crystal 1, Large sample (1 g) DSC | 131.6
483.15 K, Crystal 1, Small sample (50 mg) DSC | 131.9
488.15 K, Crystal 1, Small sample (50 mg) DSC | 133.2
493.15 K, Crystal 1, Small sample (50 mg) DSC | 134.7
498.15 K, Crystal 1, Small sample (50 mg) DSC | 136
503.15 K, Crystal 1, Large sample (1 g) DSC | 138.7
503.15 K, Crystal 1, Small sample (50 mg) DSC | 137.8
508.15 K, Crystal 1, Small sample (50 mg) DSC | 140
513.15 K, Crystal 1, Small sample (50 mg) DSC | 142.4
518.15 K, Crystal 1, Small sample (50 mg) DSC | 145.2
521.15 K, Crystal 1, Small sample (50 mg) DSC | 147.7
522.15 K, Crystal 1, Small sample (50 mg) DSC | 148.5
523.15 K, Crystal 1, Large sample (1 g) DSC | 148.8
523.15 K, Crystal 1, Small sample (50 mg) DSC | 148.9
524.15 K, Crystal 1, Small sample (50 mg) DSC | 149.8
525.15 K, Crystal 1, Small sample (50 mg) DSC | 150.9
526.15 K, Crystal 1, Small sample (50 mg) DSC | 152
527.15 K, Crystal 1, Small sample (50 mg) DSC | 153
528.15 K, Crystal 1, Small sample (50 mg) DSC | 153.2
529.15 K, Crystal 1, Small sample (50 mg) DSC | 155
530.15 K, Crystal 1, Small sample (50 mg) DSC | 156
531.15 K, Crystal 1, Small sample (50 mg) DSC | 157.5
532.15 K, Crystal 1, Small sample (50 mg) DSC | 158.7
533.15 K, Crystal 1, Large sample (1 g) DSC | 161.2
533.15 K, Crystal 1, Small sample (50 mg) DSC | 160.2
534.15 K, Crystal 1, Small sample (50 mg) DSC | 161.8
535.15 K, Crystal 1, Small sample (50 mg) DSC | 163.1
536.15 K, Crystal 1, Small sample (50 mg) DSC | 165.7
537.15 K, Crystal 1, Small sample (50 mg) DSC | 168
538.15 K, Crystal 1, Small sample (50 mg) DSC | 169.8
539.15 K, Crystal 1, Small sample (50 mg) DSC | 173.2
540.15 K, Crystal 1, Small sample (50 mg) DSC | 176.4

[3], Liquid, Small sample (50 mg) DSC
Details | molar heat capacity at constant pressure [J/K/mol]
562.15 K | 116.8
563.15 K | 110
564.15 K | 110.2
565.15 K | 109.9
566.15 K | 110.2
568.15 K | 110.9
573.15 K | 111.9
578.15 K | 112.3
583.15 K | 112.6
